In ChEMBL document CHEMBL1141849, “A beta-carboline alkaloid from the soft coral lignopsis spongiosum” (1999) one finds zone of inhibition data, which are given here for 1 molecule.

This assay relates to Escherichia coli. The experiment in a line: Antibacterial activity against Escherichia coli ATCC 25922 at 50 ug/disk by agar diffusion assay. The assay is classed as functional. The note with it: read-out: IZ.

In the case of `C[n+]1cc2[nH]c3ccccc3c2cc1C(=O)[O-]`, the zone of inhibition at 50 µg/disc was 11 mm.
